Earlier results on 2 compounds are cited in patent US6515198B2, “Use of purinergic receptor modulators and related reagents” (Syntex (U.S.A.) LLC, priority 2000, dated 2003).

This series has as its system bladder sensory afferents. Conditions: agents capable of desensitizing P2X3 receptor subunit responses.

On to `Nc1ncnc2c1ncn2[C@@H]1O[C@H](COP(=O)(O)CP(=O)(O)OP(=O)(O)O)[C@@H](O)[C@H]1O` [αβ-ATP], for which the “effect on the activity of bladder sensory afferents” value is “decrease the activity of bladder sensory afferents”.

As for `Cc1ccc(C(=O)Nc2ccc(S(=O)(=O)O)c3cc(S(=O)(=O)O)cc(S(=O)(=O)O)c23)cc1NC(=O)c1cccc(NC(=O)Nc2cccc(C(=O)Nc3cc(C(=O)Nc4ccc(S(=O)(=O)O)c5cc(S(=O)(=O)O)cc(S(=O)(=O)O)c45)ccc3C)c2)c1` [suramin], the “effect on the activity of bladder sensory afferents” value is reported as “decrease the activity of bladder sensory afferents”.
